In patent publication US20100003246A1, “Novel heterocyclic compounds and uses therof” (priority 2008, published 2010):

Molecular target: T1, b-Raf(V600E) (Homo sapiens, UniProt P15056, V600E)
T1 construct: made in house
Test: Raf/Mek Amplified Luminescence Proximity Homogeneous Assay (Alpha Screen), b-Raf(V600E)
Format: biochemical
Conditions: mutant b-Raf(V600E), read-out: mut-b-RAF (IC50 in uM)
Experimental: Assay buffer: 50 mM Tris, pH 7.5, 15 mM MgCl2, 0.01% BSA, 1 mM DTT Stop buffer: 60 mM EDTA, 0.01% Tween20 Bead buffer: 50 mM Tris, pH 7.5, 0.01% Tween20
b-Raf(V600E), active: Recombinant in-house material biotinylated Mek, kinase dead: Recombinant in-house material Alpha Screen detection kit PerkinElmer, #6760617R Anti phospho-MEK½ Cell signaling #9121 384 well assay plates: White Greiner plates, #781207
b-Raf(V600E) approximately 4 pM c-Raf approximately 4 nM biotinylated Mek, Kinase dead approximately 10 nM
Pre-incubation time with compounds 60 min at room temperature Reaction time 1 or 3 hours at room temperature
Raf and biotinylated Mek, kinase dead, were combined at 2× final concentrations in assay buffer (50 mM Tris, pH 7.5, 15 mM MgCl2, 0.01% BSA and 1 mM DTT) and dispensed 10 μl per well in assay plates (Greiner white 384 well assay plates #781207) containing 0.5 μl of 40× of a raf kinase inhibitor test compound diluted in 100% DMSO. The plate was incubated for 60 min at room temperature.
The Raf kinase activity reaction was started by the addition of 10 μl per well of 2×ATP diluted in assay buffer. After 3 hours (bRaf(V600E)) or 1 hour (c-Raf), the reactions were stopped with the addition of 10 μl of stop reagent (60 mM EDTA). Phosphorylated product was measured using a rabbit anti-p-MEK (Cell Signaling, #9121) antibody and the Alpha Screen IgG (Protein A) detection Kit (PerkinElmer #6760617R), by the addition of 30 μL to the well of a mixture of the antibody (1:2000 dilution) and detection beads (1:2000 dilution of both beads) in bead buffer (50 mM Tris, pH 7.5, 0.01% Tween20). The additions were carried out under dark conditions to protect the detection beads from light. A lid was placed on top of the plate and incubated for 1 hour at room temperature, then the luminescence was read on a PerkinElmer Envision instrument. The concentration of each compound for 50% inhibition (IC50) was calculated by non-linear regression using XL Fit data analysis software.
The Raf/Mek Amplified Luminescence Proximity Homogeneous Assay described was used to generate the luminescence and mutant b-Raf(V600E) IC50 data for selected Raf Kinase Inhibitors shown in Table 1 above.

T1 sequence (P15056 whole entry V600E): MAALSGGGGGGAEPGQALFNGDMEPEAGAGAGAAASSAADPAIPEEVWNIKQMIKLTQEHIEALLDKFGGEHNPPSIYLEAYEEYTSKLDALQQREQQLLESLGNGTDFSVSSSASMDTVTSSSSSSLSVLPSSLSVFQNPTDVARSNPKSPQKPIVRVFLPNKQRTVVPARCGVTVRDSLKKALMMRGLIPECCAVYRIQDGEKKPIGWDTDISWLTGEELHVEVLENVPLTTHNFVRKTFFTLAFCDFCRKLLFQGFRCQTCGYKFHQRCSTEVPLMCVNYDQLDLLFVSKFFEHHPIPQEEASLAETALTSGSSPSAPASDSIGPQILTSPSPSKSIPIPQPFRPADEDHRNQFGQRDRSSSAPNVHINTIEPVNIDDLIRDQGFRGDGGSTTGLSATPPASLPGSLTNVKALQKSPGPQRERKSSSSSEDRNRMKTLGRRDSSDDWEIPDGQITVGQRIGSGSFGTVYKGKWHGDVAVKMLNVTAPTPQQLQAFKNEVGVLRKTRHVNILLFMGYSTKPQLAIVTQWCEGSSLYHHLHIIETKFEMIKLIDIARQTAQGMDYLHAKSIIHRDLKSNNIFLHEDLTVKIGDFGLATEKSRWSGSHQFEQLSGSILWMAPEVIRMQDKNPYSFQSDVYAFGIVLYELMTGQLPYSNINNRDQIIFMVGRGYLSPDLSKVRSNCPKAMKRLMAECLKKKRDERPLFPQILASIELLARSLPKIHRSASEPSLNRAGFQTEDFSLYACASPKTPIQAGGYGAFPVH

IC50 [µM]	Structure (SMILES)
0.0093	COc1cc(-c2nc(C3(O)CCN(C)CC3)[nH]c2-c2ccncc2)cnc1N [Compound 156, 4-(4-(6-amino-5-methoxypyridin-3-yl)-5-(pyridin-4-yl)-1H-imidazol-2-yl)-1-methylpiperidin-4-ol]
0.0002	COc1cccc(Nc2nccc(-c3[nH]c(-c4ccc(F)cc4)nc3-c3cnc(N)c(OC)c3)n2)c1 [Compound 153, 4-(4-(6-amino-5-methoxypyridin-3-yl)-2-(4-fluorophenyl)-1H-imidazol-5-yl)-N-(3-methoxyphenyl)pyrimidin-2-amine]
0.0004	COCC(=O)N[C@@H](C)CNc1nccc(-c2[nH]c(C(C)(C)C)nc2-c2cnc(N)c(OC)c2)n1 [Compound 205, (S)-N-(1-(4-(4-(6-amino-5-methoxypyridin-3-yl)-2-tert-butyl-1H-imidazol-5-yl)pyrimidin-2-ylamino)propan-2-yl)-2-methoxyacetamide]
0.0003	COc1cc(-c2nc(C(C)(C)C)[nH]c2-c2ccnc(NC[C@H](C)NC(C)=O)n2)cnc1N [Compound 218, (S)-N-(1-(4-(4-(6-amino-5-methoxypyridin-3-yl)-2-tert-butyl-1H-imidazol-5-yl)pyrimidin-2-ylamino)propan-2-yl)acetamide]
0.0003	COc1cc(Nc2nccc(-c3[nH]c(C(C)(C)C)nc3-c3cnc4[nH]cc(Cl)c4c3)n2)ccn1 [Compound 233, 4-(2-tert-butyl-4-(3-chloro-1H-pyrrolo[2,3-b]pyridin-5-yl)-1H-imidazol-5-yl)-N-(2-methoxypyridin-4-yl)pyrimidin-2-amine]
0.641	COc1cc(-c2nc(-c3ccccc3)[nH]c2-c2ccnc(N(C)C)n2)cnc1N [Compound 63, 4-(4-(6-amino-5-methoxypyridin-3-yl)-2-phenyl-1H-imidazol-5-yl)-N,N-dimethylpyrimidin-2-amine]
0.0001	COc1cc(Nc2nccc(-c3[nH]c(C(C)(C)C)nc3-c3cnc(N)c(OC)n3)n2)ccn1 [Example 9, 4-(4-(5-amino-6-methoxypyrazin-2-yl)-2-tert-butyl-1H-imidazol-5-yl)-N-(2-methoxypyridin-4-yl)pyrimidin-2-amine]
0.0123	c1ccc(-c2nc(-c3ccncc3)c(-c3cnc4c(c3)CCN4)[nH]2)cc1 [Compound 52, 5-(2-phenyl-4-(pyridin-4-yl)-1H-imidazol-5-yl)-2,3-dihydro-1H-pyrrolo[2,3-b]pyridine]
0.0016	COc1cc(-c2[nH]c(-c3ccc(F)cc3C)nc2-c2ccncc2)cnc1N [Compound 147, 5-(2-(4-fluoro-2-methylphenyl)-4-(pyridin-4-yl)-1H-imidazol-5-yl)-3-methoxypyridin-2-amine]
0.0006	COc1cc(-c2nc(C(C)(C)C)n(C)c2-c2ccnc(NCC(C)C)n2)cnc1N [Compound 228, 4-(4-(6-amino-5-methoxypyridin-3-yl)-2-tert-butyl-1-methyl-1H-imidazol-5-yl)-N-isobutylpyrimidin-2-amine]
0.0166	COc1cc(-c2[nH]c(-c3cc(C(=O)N(C)C)ccc3F)nc2-c2ccncc2)cnc1N [Compound 124, 3-(5-(6-amino-5-methoxypyridin-3-yl)-4-(pyridin-4-yl)-1H-imidazol-2-yl)-4-fluoro-N,N-dimethylbenzamide]
0.885	O=C1CCc2cc(-c3[nH]c(-c4ccccc4)nc3-c3ccncc3)cnc2N1 [Compound 47, 6-(2-phenyl-4-(pyridin-4-yl)-1H-imidazol-5-yl)-3,4-dihydro-1,8-naphthyridin-2(1H)-one]
0.449	CC(=O)Nc1n[nH]c2cc(-c3[nH]c(-c4ccccc4)nc3-c3ccncc3)ccc12 [Compound 28, N-(6-(2-phenyl-4-(pyridin-4-yl)-1H-imidazol-5-yl)-1H-indazol-3-yl)acetamide]
0.0001	COCC(=O)N[C@@H](C)CNc1nccc(-c2[nH]c(C3CC3)nc2-c2cnc(N)c(OC)n2)n1 [Compound 250, (S)-N-(1-(4-(4-(5-amino-6-methoxypyrazin-2-yl)-2-cyclopropyl-1H-imidazol-5-yl)pyrimidin-2-ylamino)propan-2-yl)-2-methoxyacetamide]
